This data set in a line: gradient 5% acetonitrile 3 min, to 50% in 2 min, to 85% in 15 min, held 3 min, 100 µL/min. As to conditions: column: Zorbax Extend-C18 2.1 x 50 mm; eluents: water / acetonitrile, 0.1% formic acid. The method, boiled down:
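Using water and acetonitrile that each contained 0.1% formic acid, mixtures of ~100 pure standards were separated at 100 μL/min on a Zorbax Extend-C18 column (2.1 × 50 mm, 1.8 μm). The HPLC fed a quadrupole time-of-flight mass spectrometer working in positive and negative ionization mode, with dead and dwell volumes of 40 μL and 900 μL. Data were acquired over 3 months. Retention time was read from computationally picked adduct peaks after manual inspection of each.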
On to `CCc1cc(N2CCN(C(=O)c3cc(OC)cc(OC)c3)CC2)nc2nncn12`, for which the RP-LC retention time is 601 s.
With `COC(=O)CNC(=O)c1cc2c(=O)n(C)c3ccccc3n2n1`, the RP-LC retention time stood at 676 s.
Compound `Cn1c(=O)c2cc(C(=O)NCc3cc(F)ccc3F)nn2c2ccccc21` showed an RP-LC retention time of 869 s.
With `COc1ccc(S(=O)(=O)N2CCN(c3cc(C)nc(N4CCCC4)n3)CC2)cc1Cl`, the RP-LC retention time was determined as 754 s.
Then `O=C(NCc1ccccn1)C1CCN(S(=O)(=O)c2cc(C(=O)N3CCCCCC3)cs2)CC1`, with 638 s; and `Cc1cc(F)ccc1NC(=O)CN1C(=O)CCc2cc(S(=O)(=O)N3CCCCC3C)ccc21` (centres undefined), with 920 s.
`CCC(C)NC(=O)N1CCCN(C2=NS(=O)(=O)C(c3ccc(C)cc3)=C2C)CC1` (centres undefined) returned an RP-LC retention time of 816 s.
Then `CC(C)Cn1c(=O)c(N2CCN(C(=O)Nc3ccccc3)CC2)nc2ccncc21`, with 577 s; and `CCOC(=O)C1=C(O)C(=O)N(Cc2ccccc2)C1`, with 834 s; and `CN1C(=O)C(C)(C(=O)Nc2cccc(Cl)c2)Oc2cccnc21` (centres undefined), with 889 s.
As for `Cc1nnc(-c2nnc(NCc3cccc(F)c3)c3ccccc23)o1`, the RP-LC retention time is 826 s.
`O=C(Cc1cccs1)N1CCCC1c1nc(-c2ccc(F)cc2F)no1` (centres undefined) came in with an RP-LC retention time of 935 s.
`O=C(c1ccc(OCC2CCCN2C(=O)c2cccs2)cc1)N1CCCC1` (centres undefined) yielded an RP-LC retention time of 815 s.
With `O=C(c1nnc(-c2ccc(S(=O)(=O)N3CCOCC3)cc2)o1)N1CCCCCC1`, the RP-LC retention time came out at 862 s.
Then `O=C1COc2ccc(S(=O)(=O)N3CCC(C(=O)N4CCN(c5ccccc5)CC4)CC3)cc2N1`, with 766 s; and `Nc1ncnc2c1ncn2C1CCCC1`, with 595 s.
The compound `COc1ccc(NC(=O)Cn2c(C)cc(-c3nnc(-c4ccco4)o3)c2C)cc1F` had an RP-LC retention time of 865 s.
Take `Cc1cccc(-c2nnc(SCC(=O)N3CCC(C)CC3)o2)c1`: the RP-LC retention time amounted to 969 s.
For the compound `CNC(=O)c1cccc(NC(=O)N2CCC(Oc3ccccc3Cl)CC2)c1`, the RP-LC retention time worked out at 899 s.
The compound `O=C(NC(Cc1c[nH]c2ccccc12)C(=O)O)c1ccc(Cl)cc1` (centres undefined) registered an RP-LC retention time of 724 s.
On to `O=C(Cn1nc2c(cc1=O)CCCC2)Nc1ccc(Br)cc1`, for which the RP-LC retention time worked out at 747 s.
The compound `CCn1c(C(=O)Nc2cccc(C)n2)cc2c(=O)oc3ccccc3c21` displayed an RP-LC retention time of 891 s.
Then `Cn1nc(C(=O)N2CCCC2)c2c1CCN(C(=O)CCC(=O)N1CCCCC1)C2`, with 653 s; and `COc1ccc(-c2noc(C3(NC(=O)c4cccc(C#N)c4)CCCCC3)n2)cc1`, with 1110 s.
Take `CC(C)c1c(C(=O)O)nnn1-c1ccc(F)c(F)c1`: the RP-LC retention time turned out to be 762 s.
Then `CCOC(=O)c1c(C)[nH]c(C)c1S(=O)(=O)NCCCN1CCc2ccccc2C1`, with 651 s.
In turn, `COc1cccc(-c2cn3ccn(-c4ccccc4)c(=O)c3n2)c1` displayed an RP-LC retention time of 773 s.
Compound `O=C(Nc1ccc(-n2cnnn2)cc1)c1ccc(OCc2nc(C3CC3)cs2)cc1` returned an RP-LC retention time of 823 s.
`CC(C)c1ccc(NC(=O)C(=O)c2cn(CC(=O)N3CCCC3)c3ccccc23)cc1`: the RP-LC retention time was 1140 s.
Turning to `CC1=C(c2ccccc2)S(=O)(=O)N=C1N1CCCN(C(=O)Nc2cccc(C)c2)CC1`, the RP-LC retention time was found to be 709 s.
Compound `COc1ccc(C2(C(=O)N3C[C@@H](CO)[C@H](c4ccccn4)C3)CC2)cc1` registered an RP-LC retention time of 605 s.
For `CCN(CC)CCNC(=O)c1cn(C)nc1S(=O)(=O)N1CCN(c2cccc(Cl)c2)CC1`, the RP-LC retention time came to 711 s.
Regarding `CCc1nc2cc(-c3noc(-c4cccc(F)c4)n3)ccc2o1`, the RP-LC retention time stood at 1230 s.
The compound `O=C(CCc1c(-c2ccc(Br)cc2)nc2ccccn12)NCCc1ccco1` yielded an RP-LC retention time of 678 s.
Then `CCc1ccc(S(=O)(=O)N2CCc3nc(CNC(=O)C4CCC4)n(C)c3C2)cc1`, with 652 s; and `COc1ccccc1C(=O)Nc1cccn2ncnc12`, with 803 s.
`COc1nccnc1N1CCC(N(C)C(=O)NCc2cccc(F)c2)C1` (centres undefined) came in with an RP-LC retention time of 697 s.
Compound `O=C1C(=O)N(Cc2ccc(C(=O)N3CCCCCC3)cc2)CCN1Cc1ccc(F)cc1` gave an RP-LC retention time of 728 s.
As to `CCCc1cc(NCc2ccccn2)n2ncc(-c3ccccc3)c2n1`, the RP-LC retention time turned out to be 894 s.
For `Cc1cc(C)cc(NC(=O)CN2CCC(C(=O)Nc3ccc(C(N)=O)cc3)CC2)c1`, the RP-LC retention time is 571 s.
For `CCOc1ccc(-c2ccc(=O)n(CCc3nc(-c4cccc(OC)c4OC)no3)n2)cc1`, the RP-LC retention time came out at 952 s.
In the case of `Cc1ccc(C(=O)NCc2ccc3c(c2)ncn3C)s1`, the RP-LC retention time was 604 s.
Then `CN(CCc1noc(-c2ccc(Cl)cc2)n1)C(=O)c1ccc(C#N)cc1`, with 908 s; and `C=CC(=O)Nc1cccc(Sc2nc(Nc3ccc(N4CCN(C)CC4)cc3)ncc2Cl)c1`, with 754 s; and `Cn1nc(-c2nnc(-c3ccccc3)o2)c2c1CCN(S(=O)(=O)c1ccc(F)c(Cl)c1)C2`, with 979 s.
Consider `O=C(NCCC1=CCCCC1)C(=O)NCC(O)c1ccc(C(F)(F)F)cc1` (centres undefined), for which the RP-LC retention time came to 949 s.
The compound `COc1cccc(-c2nnc(Cc3nc(-c4ccc(Br)cc4)no3)o2)c1` came in with an RP-LC retention time of 1100 s.
For `CC(C)c1noc(-c2ccn3c(CC(=O)N4CCc5ccccc5C4)nnc3c2)n1`, the RP-LC retention time amounted to 822 s.
`COc1ccc(CCNC(=O)C2CCCN(S(=O)(=O)c3ccc4c(ccn4C)c3)C2)cc1OC` (centres undefined): the RP-LC retention time is 828 s.
The compound `CCn1c(CNC(=O)C2CCC2)nc2c1CN(C(=O)c1ccc(OC)cc1)CC2` yielded an RP-LC retention time of 612 s.
Compound `CCn1ccc2sc(C)c(C(=O)NCc3ccccc3Br)c2c1=O` displayed an RP-LC retention time of 926 s.
Turning to `CN(C)C(=O)c1cc(=O)[nH]c2c(Cl)cccc12`, the RP-LC retention time worked out at 604 s.
`CCN1CCN(c2cc(-c3ccc(F)cc3)c3c(n2)CCCCCC3)CC1` came in with an RP-LC retention time of 765 s.
Then `Cn1c(=O)sc2cc(S(=O)(=O)N3CCC(C(=O)Nc4cccc(C(F)(F)F)c4)CC3)ccc21`, with 970 s; and `COc1cccc(NC(=O)CN2CCc3c(c(=O)c4cc(C)ccc4n3C)C2)c1`, with 609 s.
As to `COc1ccc(N2CCN(c3cc(SCC(=O)NCCC(C)C)ncn3)CC2)cc1`, the RP-LC retention time is 873 s.
`CN(C)c1cnc(-n2cc(NC(=O)NCCc3ccccc3)cn2)nc1`: the RP-LC retention time stood at 718 s.
Then `Cc1ccc(C(=O)N2CCCCCCNC(=O)[C@@H]3CCCC[C@@H]32)s1`, with 813 s.
`COc1ccc(S(=O)(=O)Nc2cc(-c3cn4cccc(C)c4n3)ccc2C)cc1` had an RP-LC retention time of 664 s.

Values taken from the METLIN SMRT retention time set (Domingo-Almenara et al. 2019).
